In brackets after ≈: the same amount, converted by molar mass. Read-outs that look alike come from different tables or passages of the source.
How the values were obtained:
Ps. aeruginosa A-21213 = experiment: MIC, tube dilution, Pseudomonas aeruginosa A21213; type: cell-based; details: overnight 37° C., read-out: Minimum Inhibitory Concentration (M.I.C.)
From the text: (§1) Representative compounds of the present invention were subjected to in vitro antibiotic screening against a variety of microorganisms.

S. aureus A9537 = experiment: In vivo protection of mice, lethal infection with S. aureus A9537; details: Staphylococcus aureus, A9537, im, IM, 2 treatments, read-out: PD50
Protocol: Representative compounds of the present invention were also tested in vivo in mice and their PD50 (dose of compound in mg/kg required to protect 50% of the treated mice against an otherwise lethal infection of a micro-organism) values determined with respect to the test organisms shown below.

Ent. cloacae A-9656 = experiment: MIC, tube dilution, Enterobacter cloacae A9656; type: cell-based; details: Enterobacter cloacae, A9656, Enterobacter cloacae A9656; overnight 37° C.; read-out: Minimum Inhibitory Concentration (M.I.C.)
From the text: as §1

Str. pyogenes A-9604 = experiment: MIC, tube dilution, Streptococcus pyogenes A9604; type: cell-based; details: Streptococcus pyogenes, A9604, Str. pyogenes A9604; overnight 37° C., Nutrient Broth; read-out: Minimum Inhibitory Concentration (M.I.C.)
From the text: as §1

Staph. aureus A-9537 = experiment: MIC, tube dilution, Staphylococcus aureus A9537; type: cell-based; details: Staphylococcus aureus, A9537, Staph. aureus A9537; overnight 37° C., Nutrient Broth; read-out: Minimum Inhibitory Concentration (M.I.C.)
From the text: as §1

[1] = tested on: Klebsiella species A20468; experiment: MIC, tube dilution, Klebsiella species A20468; type: cell-based; details: Klebsiella species (K. pneumoniae) A20468; overnight 37° C.; read-out: Minimum Inhibitory Concentration (M.I.C.)
From the text: as §1

E. coli A-15119 = experiment: MIC, tube dilution, Escherichia coli A15119; type: cell-based; details: Escherichia coli, A15119, E. coli A15119; overnight 37° C.; read-out: Minimum Inhibitory Concentration (M.I.C.)
From the text: as §1

Ent. cloacae A-9659 = experiment: MIC, tube dilution, Enterobacter cloacae A9659; type: cell-based; details: Enterobacter cloacae, A9659, Enterobacter cloacae A9659; overnight 37° C.; read-out: Minimum Inhibitory Concentration (M.I.C.)
From the text: as §1

[2] = tested on: Staph. aureus (Meth-Res) A-15097; experiment: MIC, tube dilution, Staphylococcus aureus A15097 (Meth-Res); type: cell-based; details: Staphylococcus aureus, Staph. aureus A15097 (Meth-Res); overnight 37° C.; read-out: Minimum Inhibitory Concentration (M.I.C.)
From the text: as §1

[3] = tested on: Staph. aureus A-9537 and 50% serum; experiment: MIC, tube dilution, Staph. aureus A9537 + 50% serum; type: cell-based, Staphylococcus aureus; details: Staphylococcus aureus, overnight 37° C., read-out: Minimum Inhibitory Concentration (M.I.C.)
From the text: as §1

Ser. marcescens A-20019 = experiment: MIC, tube dilution, Serratia marcescens A20019; type: cell-based; details: Serratia marcescens, A20019, Serratia marcescens A20019; overnight 37° C.; read-out: Minimum Inhibitory Concentration (M.I.C.)
From the text: as §1

Pr. mirabilis A-9900 = experiment: MIC, tube dilution, Proteus mirabilis A9900; type: cell-based; details: overnight 37° C.; for MIC: Proteus mirabilis, A9900, Proteus mirabilis A9900, read-out: Minimum Inhibitory Concentration (M.I.C.)
From the text: as §1

Ps. aeruginosa A-9843A = experiment: MIC, tube dilution, Pseudomonas aeruginosa A9843A; type: cell-based; details: Pseudomonas aeruginosa, A9843A, read-out: Minimum Inhibitory Concentration (M.I.C.), Pseudomonas aeruginosa A9843A; overnight 37° C.
From the text: as §1

Pr. morganii A-15153 = experiment: MIC, tube dilution, Proteus morganii A15153; type: cell-based; details: overnight 37° C.; for MIC: Morganella morganii, A15153, Proteus morganii A15153, read-out: Minimum Inhibitory Concentration (M.I.C.)
From the text: as §1

Str. faecalis A-20688 = experiment: MIC, tube dilution, Streptococcus faecalis A20688; type: cell-based; details: Enterococcus faecalis, A20688, Str. faecalis A20688; overnight 37° C.; read-out: Minimum Inhibitory Concentration (M.I.C.)
From the text: as §1

Proteus rettgeri A21203 = experiment: MIC, tube dilution, Proteus rettgeri A21203; type: cell-based; details: Providencia rettgeri, A21203, Proteus rettgeri A21203; overnight 37° C.; read-out: Minimum Inhibitory Concentration (M.I.C.)
From the text: as §1

E. coli A-20341-1 = experiment: MIC, tube dilution, Escherichia coli A20341-1; type: cell-based; details: Escherichia coli, A203411, E. coli A20341-1; overnight 37° C.; read-out: Minimum Inhibitory Concentration (M.I.C.)
From the text: as §1

[4] = tested on: Staph. aureus (Pen-Res) A-9606; experiment: MIC, tube dilution, Staphylococcus aureus A9606 (Pen-Res); type: cell-based; details: Staphylococcus aureus, Staph. aureus A9606 (Pen-Res); overnight 37° C.; read-out: Minimum Inhibitory Concentration (M.I.C.)
From the text: as §1

K. pneumoniae A-15130 = experiment: MIC, tube dilution, Klebsiella pneumoniae A15130; type: cell-based; details: Klebsiella pneumoniae, A15130, K. pneumoniae A15130; overnight 37° C.; read-out: Minimum Inhibitory Concentration (M.I.C.)
From the text: as §1

Str. pneumoniae A-9585 = experiment: MIC, tube dilution, Streptococcus pneumoniae A9585; type: cell-based; details: Streptococcus pneumoniae, A9585, Str. pneumoniae A9585; overnight 37° C., Nutrient Broth; read-out: Minimum Inhibitory Concentration (M.I.C.)
From the text: as §1

Proteus vulgaris A21559 = experiment: MIC, tube dilution, Proteus vulgaris A21559; type: cell-based; details: Proteus vulgaris, A21559, Proteus vulgaris A21559; overnight 37° C.; read-out: Minimum Inhibitory Concentration (M.I.C.)
From the text: as §1

Structure (SMILES)	MIC (Ent. cloacae A-9656)	MIC (Str. pyogenes A-9604)	MIC (Staph. aureus A-9537)	MIC [1]	MIC (E. coli A-15119)	MIC (Ent. cloacae A-9659)	MIC [2]	MIC [3]	MIC (Ser. marcescens A-20019)	MIC (Pr. mirabilis A-9900)	MIC (Ps. aeruginosa A-9843A)	MIC (Pr. morganii A-15153)	MIC (Str. faecalis A-20688)	MIC (Proteus rettgeri A21203)	MIC (E. coli A-20341-1)	MIC [4]	MIC (K. pneumoniae A-15130)	MIC (Str. pneumoniae A-9585)	MIC (Proteus vulgaris A21559)	ED50 (S. aureus A9537; 8 × 10^5 organisms)	also measured
CC1=C(C(=O)O)N2C(=O)[C@H]([C@@H](C)O)[C@H]2S1 (relative stereo) [Example 60, (1'R,5R,6S and 1'S,5S,6R) 6-(1'-Hydroxy-1'-ethyl)-2-methylpenem-3-carboxylic Acid (isomer B)]	16 µg/mL (≈ 69.8 µM)	1 µg/mL (≈ 4.36 µM)	2 µg/mL (≈ 8.72 µM)	16 µg/mL (≈ 69.8 µM)	16 µg/mL (≈ 69.8 µM)	32 µg/mL (≈ 140 µM)	8 µg/mL (≈ 34.9 µM)	8 µg/mL	16 µg/mL (≈ 69.8 µM)	32 µg/mL (≈ 140 µM)	> 125 µg/mL	32 µg/mL (≈ 140 µM)	63 µg/mL (≈ 275 µM)	16 µg/mL (≈ 69.8 µM)	16 µg/mL (≈ 69.8 µM)	4 µg/mL (≈ 17.4 µM)	16 µg/mL (≈ 69.8 µM)	0.25 µg/mL (≈ 1.09 µM)	16 µg/mL (≈ 69.8 µM)	–	MIC (Ps. aeruginosa A-21213; Pseudomonas aeruginosa A21213): > 125 µg/mL; ED50 (S. aureus A9537; 6.6 × 10^5 organisms): 7.7 mg/kg; Minimum Inhibitory Concentration (M.I.C.) (Pr. mirabilis A-9900; Proteus mirabilis A9900): 16 µg/mL; Minimum Inhibitory Concentration (M.I.C.) (Pr. morganii A-15153; Proteus morganii A15153): 16 µg/mL
C[C@@H](O)[C@H]1C(=O)N2C(C(=O)O)=C(CN)S[C@H]12 (relative stereo) [Example 62, (1'R,5R,6S and 1'S,5S,6R) 2-Aminomethyl-6-(1'-hydroxy-1'-ethyl)-penem-3-carboxylic Acid (isomer B)]	1 µg/mL (≈ 4.09 µM)	0.5 µg/mL (≈ 2.05 µM)	0.03 µg/mL (≈ 0.123 µM)	32 µg/mL (≈ 131 µM)	8 µg/mL (≈ 32.8 µM)	32 µg/mL (≈ 131 µM)	0.5 µg/mL (≈ 2.05 µM)	0.25 µg/mL	16 µg/mL (≈ 65.5 µM)	2 µg/mL (≈ 8.19 µM)	2 µg/mL (≈ 8.19 µM)	2 µg/mL (≈ 8.19 µM)	32 µg/mL (≈ 131 µM)	2 µg/mL (≈ 8.19 µM)	8 µg/mL (≈ 32.8 µM)	0.25 µg/mL (≈ 1.02 µM)	16 µg/mL (≈ 65.5 µM)	0.03 µg/mL (≈ 0.123 µM)	2 µg/mL (≈ 8.19 µM)	–	ED50 (S. aureus A9537; 8.6 × 10^5 organisms): 1 mg/kg
C[C@@H](O)[C@H]1C(=O)N2C(C(=O)O)=C(CCCCN)S[C@H]12 (relative stereo) [Example 64, (1'R,5R,6S and 1'S,5S,6R)-2-(4-Aminobutyl)-6-(1'-hydroxy-ethyl)-penem-3-carboxylic Acid (isomer B)]	16 µg/mL (≈ 55.9 µM)	0.03 µg/mL (≈ 0.105 µM)	0.06 µg/mL (≈ 0.21 µM)	4 µg/mL (≈ 14 µM)	2 µg/mL (≈ 6.98 µM)	4 µg/mL (≈ 14 µM)	0.25 µg/mL (≈ 0.873 µM)	0.13 µg/mL	4 µg/mL (≈ 14 µM)	4 µg/mL (≈ 14 µM)	16 µg/mL (≈ 55.9 µM)	4 µg/mL (≈ 14 µM)	4 µg/mL (≈ 14 µM)	4 µg/mL (≈ 14 µM)	2 µg/mL (≈ 6.98 µM)	0.13 µg/mL (≈ 0.454 µM)	4 µg/mL (≈ 14 µM)	0.016 µg/mL (≈ 0.0559 µM)	2 µg/mL (≈ 6.98 µM)	0.04 mg/kg	–
CC1=C(C(=O)O)N2C(=O)[C@H]([C@@H]3COC(C)(C)O3)[C@H]2S1 (relative stereo) [Example 103, (4'R,5R,6S and 4'S,5S,6R) 6-(2',2'-Dimethyl-1',3'-dioxolan-4'-yl)-2-methylpenem-3-carboxylic Acid (Isomer C)]	> 63 µg/mL	63 µg/mL (≈ 221 µM)	> 63 µg/mL	> 63 µg/mL	> 63 µg/mL	> 63 µg/mL	> 63 µg/mL	> 32 µg/mL	> 63 µg/mL	63 µg/mL (≈ 221 µM)	63 µg/mL (≈ 221 µM)	> 63 µg/mL	> 63 µg/mL	> 63 µg/mL	> 63 µg/mL	> 63 µg/mL	> 63 µg/mL	63 µg/mL (≈ 221 µM)	> 63 µg/mL	> 5 mg/kg	MIC (Ps. aeruginosa A-21213; Pseudomonas aeruginosa, A21213, Pseudomonas aeruginosa A21213): 63 µg/mL (≈ 221 µM)
